Earlier results on one compound are cited in patent publication US12636262B2, “Process for the preparation of topical formulation” (Neuheit Pharma Technologies Pvt. Ltd, priority 2019, dated 2026).

For this series the following is noted: reported.

`CC(=O)Oc1cccc2c1C(=O)c1c(OC(C)=O)cc(C(=O)O)cc1C2=O` [Diacerein, 4,5-diacetyloxy-9,10-dioxo-anthracene-2-carboxylic acid]: the oral bioavailability is recorded as 40-60%.
